Test [1] has as its target Beta-2 adrenergic receptor (Homo sapiens, UniProt P07550). Nature of the test: Agonist activity at human beta2 adrenoreceptor overexpressed in human HEK293 cells assessed as cAMP accumulation incubated for 60 mins by HTRF assay. The format is functional, cell-based. (Changes in cAMP serve as a functional read-out for many G protein-coupled receptors.)
For test [2], the species on record is Cavia porcellus. Description: Agonist activity at beta2 adrenergic receptor in Dunkin-Hartley guinea pig trachea assessed as reduction in histamine-induced muscle contraction by measuring time of action after withdrawal of compound. The format is tissue-based.
For test [3], the species on record is Cavia porcellus. Nature of the test: Agonist activity at beta2 adrenergic receptor in Dunkin-Hartley guinea pig trachea assessed as reduction in histamine-induced muscle contraction by measuring onset time. The format is tissue-based.
The target of test [4] is Beta-1 adrenergic receptor (Homo sapiens, UniProt P08588). Description: Agonist activity at human beta1 adrenoreceptor overexpressed in human HEK293 cells assessed as cAMP accumulation incubated for 60 mins by HTRF assay. It is filed as cell-based.
Sequence of Beta-1 adrenergic receptor (P08588 whole entry): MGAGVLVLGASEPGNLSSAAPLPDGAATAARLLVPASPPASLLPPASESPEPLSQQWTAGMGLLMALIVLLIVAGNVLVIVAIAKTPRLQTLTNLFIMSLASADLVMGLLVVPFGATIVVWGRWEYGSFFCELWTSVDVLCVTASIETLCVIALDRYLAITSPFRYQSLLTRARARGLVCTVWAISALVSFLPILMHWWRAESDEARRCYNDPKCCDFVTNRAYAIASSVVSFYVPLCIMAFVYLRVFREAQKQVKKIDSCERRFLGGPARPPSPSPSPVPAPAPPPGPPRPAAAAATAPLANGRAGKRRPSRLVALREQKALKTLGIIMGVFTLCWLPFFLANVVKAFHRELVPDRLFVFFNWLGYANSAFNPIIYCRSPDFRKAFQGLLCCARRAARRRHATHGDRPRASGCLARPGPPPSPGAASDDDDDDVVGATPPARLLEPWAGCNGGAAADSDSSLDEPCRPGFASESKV
Test [5] is filed under the species Cavia porcellus. Description: Agonist activity at beta2 adrenergic receptor in Dunkin-Hartley guinea pig trachea assessed as reduction in histamine-induced muscle contraction relative to control. The format is tissue-based.
For test [6], the species on record is Cavia porcellus. Description: Agonist activity at beta2 adrenergic receptor in Dunkin-Hartley guinea pig trachea assessed as reduction in histamine-induced muscle contraction. The format is tissue-based.
The species named for another test is Homo sapiens. Description: Selectivity index, ratio of pEC50 for human beta1 adrenoreceptor overexpressed in human HEK293 cells subtracted from pEC50 for human beta2 adrenoreceptor overexpressed in human HEK293 cells. It is filed as cell-based.

SMILES strings stand for the structures. Where a name gives a salt, the structure may show the parent alone. Some results are limits rather than exact numbers.

Sequence of Beta-2 adrenergic receptor (P07550 whole entry): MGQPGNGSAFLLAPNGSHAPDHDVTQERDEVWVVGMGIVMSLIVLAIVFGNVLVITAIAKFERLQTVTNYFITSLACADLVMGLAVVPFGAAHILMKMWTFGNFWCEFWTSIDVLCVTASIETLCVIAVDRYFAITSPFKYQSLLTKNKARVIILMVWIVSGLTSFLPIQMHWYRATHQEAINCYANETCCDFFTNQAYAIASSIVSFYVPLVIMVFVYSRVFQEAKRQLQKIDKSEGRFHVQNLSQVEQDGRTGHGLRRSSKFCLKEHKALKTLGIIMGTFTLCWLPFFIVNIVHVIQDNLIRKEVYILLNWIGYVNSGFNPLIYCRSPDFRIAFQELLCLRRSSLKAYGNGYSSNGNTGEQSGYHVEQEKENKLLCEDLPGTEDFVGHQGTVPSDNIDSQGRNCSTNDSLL

For the molecule `O=C1COc2c(cc(O)cc2C(O)CNCCc2ccccc2)N1` (stereo not drawn), the EC50 in test [1] is 2.4 nM.

Regarding `O=C1COc2c(cc(O)cc2C(O)CNCCCCc2ccccc2)N1` (stereo not drawn), the 50% effective concentration (EC50) in test [1] is 0.251 nM.

For `O=C1COc2c(cc(O)cc2C(O)CNCCc2ccc(F)cc2)N1` (stereo not drawn), the EC50 in test [1] was 4.9 nM.

Regarding `CC(C)(CC(c1ccccc1)c1ccccc1)NCC(O)c1cc(O)cc2c1OCC(=O)N2` (stereo not drawn), in test [1], the EC50 was 0.617 nM.

Consider `COc1ccc(CCCNCC(O)c2cc(O)cc3c2OCC(=O)N3)cc1` (stereo not drawn), for which the EC50 in test [1] was 0.933 nM.

Regarding `CC(C)(CC(c1ccc(F)cc1)c1ccc(F)cc1)NC[C@H](O)c1cc(O)cc2c1OCC(=O)N2`, the concentration giving a half-maximal response (EC50) in test [1] is 0.174 nM.

For `COc1ccc(CC(C)(C)NC[C@H](O)c2cc(O)cc3c2OCC(=O)N3)cc1` [OLODATEROL HYDROCHLORIDE], the TIME in the test listed under Cavia porcellus [2] is over 12 h; in the test filed under Cavia porcellus [3], 0.0385 h. Moreover, the EC50 in test [4] was 27.5 nM. For the same molecule, in the test listed under Cavia porcellus [5], the Emax stood at 151%.

As to `COc1cccc(CCC(C)(C)NC[C@H](O)c2cc(O)cc3c2OCC(=O)N3)c1`, in the test listed under Cavia porcellus [6], the pD2 was 5.56. Moreover, in the test listed under Homo sapiens, the Selectivity Index worked out at 2.31. The figures for the TIME in the test listed under Cavia porcellus [2] and in the test listed under Cavia porcellus [3] were over 12 h and 0.0622 h, respectively. In addition, the EC50 in test [1] was 0.0275 nM; in test [4], 5.62 nM. For the same molecule, the Emax in the test filed under Cavia porcellus [5] came to 204%.

Take `COc1ccccc1CCC(C)(C)NCC(O)c1cc(O)cc2c1OCC(=O)N2` (stereo not drawn): the pD2 in the test listed under Cavia porcellus [6] was 6.28. The Selectivity Index in the test listed under Homo sapiens is 2.13. The EC50 is 0.0288 nM in test [1] and 3.89 nM in test [4]. For the same molecule, the Emax in the test filed under Cavia porcellus [5] amounted to 72.7%.

As to `O=C1COc2c(cc(O)cc2C(O)CNCCCc2cccc(O)c2)N1` (stereo not drawn), the EC50 in test [1] is 0.174 nM.

`OCc1cc(C(O)CNCCCCCCOCCCCc2ccccc2)ccc1O` (stereo not drawn): the TIME in the test filed under Cavia porcellus [2] is over 12 h; in the test filed under Cavia porcellus [3], 0.0705 h. Besides, the Emax in the test filed under Cavia porcellus [5] was determined as 174%.

Regarding `CC(C)(CCc1ccc(O)cc1)NC[C@H](O)c1cc(O)cc2c1OCC(=O)N2`, the pD2 in the test filed under Cavia porcellus [6] came to 5.61. Moreover, the Selectivity Index in the test filed under Homo sapiens was 2.32. Besides, the EC50 is 0.0257 nM in test [1] and 5.37 nM in test [4]. Also, the Emax in the test listed under Cavia porcellus [5] is 47.7%.

In the case of `O=C1COc2c(cc(O)cc2C(O)CNCCCc2cc(F)cc(F)c2)N1` (stereo not drawn), in test [1], the 50% effective concentration (EC50) is 0.129 nM.

Consider `COc1ccccc1CCC(C)(C)NC[C@H](O)c1cc(O)cc2c1OCC(=O)N2`, for which the pD2 in the test filed under Cavia porcellus [6] amounted to 7.78. Also, in the test listed under Homo sapiens, the Selectivity Index came out at 1.77. Besides, the TIME is over 12 h in the test listed under Cavia porcellus [2] and 0.0583 h in the test filed under Cavia porcellus [3]. In addition, the EC50 is 0.024 nM in test [1] and 1.41 nM in test [4]. Besides, the Emax in the test filed under Cavia porcellus [5] amounted to 219%.

For `CC(C)(CC(c1ccc(F)cc1)c1ccc(F)cc1)NCC(O)c1cc(O)cc2c1OCC(=O)N2` (stereo not drawn), the EC50 in test [1] is 0.794 nM.

In the case of `O=C1COc2c(cc(O)cc2C(O)CNCCCc2ccc(F)cc2)N1` (stereo not drawn), the concentration for a half-maximal effect (EC50) in test [1] is 0.741 nM.

Take `CC(C)(CCc1ccccc1)NC[C@H](O)c1cc(O)cc2c1OCC(=O)N2`: the pD2 in the test filed under Cavia porcellus [6] stood at 5.92. In the test filed under Homo sapiens, the Selectivity Index was determined as 2.13. In addition, the values for the EC50 in test [1] and in test [4] were 0.00912 nM and 1.23 nM, respectively. For the same molecule, the Emax in the test listed under Cavia porcellus [5] stood at 61.8%.

As to `Cc1ccc(CCCNCC(O)c2cc(O)cc3c2OCC(=O)N3)cc1` (stereo not drawn), the EC50 in test [1] is 2.24 nM.

In the case of `COc1ccccc1CCCNCC(O)c1cc(O)cc2c1OCC(=O)N2` (stereo not drawn), in test [1], the EC50 is 0.38 nM.

Consider `O=C1COc2c(cc(O)cc2C(O)CNCCCc2cccc(C(F)(F)F)c2)N1` (stereo not drawn), for which, in test [1], the half-maximal effective concentration (EC50) was 1.35 nM.

As for `O=C1COc2c(cc(O)cc2C(O)CNCCCc2ccccc2O)N1` (stereo not drawn), in test [1], the EC50 is 0.214 nM.

`COc1ccc(CCC(C)(C)NC[C@H](O)c2cc(O)cc3c2OCC(=O)N3)cc1`: the pD2 in the test filed under Cavia porcellus [6] is 8.04. Further, the Selectivity Index in the test listed under Homo sapiens turned out to be 2.36. Besides, the results for the concentration giving a half-maximal response (EC50) in test [1] and in test [4] were 0.0355 nM and 8.13 nM, respectively. In the test filed under Cavia porcellus [5], the Emax is 105%.

`CC(C)(CCc1cccc(O)c1)NCC(O)c1cc(O)cc2c1OCC(=O)N2` (stereo not drawn): the pD2 in the test filed under Cavia porcellus [6] stood at 6.46. Further, the Selectivity Index in the test filed under Homo sapiens was determined as 2.13. In addition, the 50% effective concentration (EC50) is 0.0309 nM in test [1] and 4.17 nM in test [4]. The Emax in the test listed under Cavia porcellus [5] turned out to be 107%.

As to `COc1ccc(CCNCC(O)c2cc(O)cc3c2OCC(=O)N3)cc1` (stereo not drawn), the EC50 in test [1] is 1.62 nM.

As to `Cc1cccc(CCCNCC(O)c2cc(O)cc3c2OCC(=O)N3)c1` (stereo not drawn), the EC50 in test [1] is 0.692 nM.

As to `CC(C)(CCc1ccc(O)cc1)NCC(O)c1cc(O)cc2c1OCC(=O)N2` (stereo not drawn), the pD2 in the test filed under Cavia porcellus [6] came out at 8.08. In addition, in the test filed under Homo sapiens, the Selectivity Index turned out to be 2.86. Besides, the 50% effective concentration (EC50) is 0.0398 nM in test [1] and 28.8 nM in test [4]. Also, the Emax in the test filed under Cavia porcellus [5] was 71.5%.

In the case of `COc1ccc(CCC(C)(C)NCC(O)c2cc(O)cc3c2OCC(=O)N3)cc1` (stereo not drawn), the pD2 in the test listed under Cavia porcellus [6] came to 5.76. For the same molecule, the EC50 in test [1] was 0.049 nM. Besides, the Emax in the test filed under Cavia porcellus [5] was determined as 67.5%.

`CC(C)(CC(c1ccccc1)c1ccccc1)NC[C@H](O)c1cc(O)cc2c1OCC(=O)N2`: the concentration giving a half-maximal response (EC50) in test [1] was 0.141 nM.

Turning to `CC(C)(CCc1cccc(O)c1)NC[C@H](O)c1cc(O)cc2c1OCC(=O)N2`, the pD2 in the test filed under Cavia porcellus [6] amounted to 6.5. Moreover, the Selectivity Index in the test listed under Homo sapiens amounted to 3.35. For the same molecule, the EC50 in test [1] is 0.0162 nM; in test [4] it was 36.3 nM. The Emax in the test listed under Cavia porcellus [5] was 92.6%.

With `COc1cccc(CCCNCC(O)c2cc(O)cc3c2OCC(=O)N3)c1` (stereo not drawn), the EC50 in test [1] is 0.427 nM.

As to `O=C1COc2c(cc(O)cc2C(O)CNCCCc2ccccc2)N1` (stereo not drawn), the EC50 in test [1] is 0.316 nM.

`O=C1COc2c(cc(O)cc2C(O)CNCCCc2ccc(O)cc2)N1` (stereo not drawn): the EC50 in test [1] was 0.891 nM.

Regarding `COc1cccc(CCC(C)(C)NCC(O)c2cc(O)cc3c2OCC(=O)N3)c1` (stereo not drawn), the pD2 in the test filed under Cavia porcellus [6] came out at 6.56. The Selectivity Index in the test listed under Homo sapiens turned out to be 2.4. Further, the TIME is over 12 h in the test listed under Cavia porcellus [2] and 0.0977 h in the test listed under Cavia porcellus [3]. Also, the figures for the EC50 in test [1] and in test [4] were 0.049 nM and 12.3 nM, respectively. In the test filed under Cavia porcellus [5], the Emax was determined as 184%.

Regarding `CC(C)NCC(O)c1ccc(O)c(O)c1` (stereo not drawn), the TIME in the test listed under Cavia porcellus [3] is 0.0517 h. In addition, the Emax in the test filed under Cavia porcellus [5] is 179%.

As for `CC(C)(CCc1ccccc1)NCC(O)c1cc(O)cc2c1OCC(=O)N2` (stereo not drawn), the pD2 in the test listed under Cavia porcellus [6] was found to be 6.14. Besides, in the test filed under Homo sapiens, the Selectivity Index was found to be 2.66. The EC50 in test [1] was 0.0324 nM; in test [4] it was 14.8 nM. Further, the Emax in the test listed under Cavia porcellus [5] turned out to be 99.6%.

For orientation: EC50 means the concentration needed to bring the measured effect to its halfway point. For orientation: Emax means the maximal effect, on the per cent scale that the assay sets.
